The target in experiment [1] is T1, hMAO-A (Homo sapiens, UniProt P21397).
T1 construct: purchased Sigma M7316
T1 sequence (P21397 1-527): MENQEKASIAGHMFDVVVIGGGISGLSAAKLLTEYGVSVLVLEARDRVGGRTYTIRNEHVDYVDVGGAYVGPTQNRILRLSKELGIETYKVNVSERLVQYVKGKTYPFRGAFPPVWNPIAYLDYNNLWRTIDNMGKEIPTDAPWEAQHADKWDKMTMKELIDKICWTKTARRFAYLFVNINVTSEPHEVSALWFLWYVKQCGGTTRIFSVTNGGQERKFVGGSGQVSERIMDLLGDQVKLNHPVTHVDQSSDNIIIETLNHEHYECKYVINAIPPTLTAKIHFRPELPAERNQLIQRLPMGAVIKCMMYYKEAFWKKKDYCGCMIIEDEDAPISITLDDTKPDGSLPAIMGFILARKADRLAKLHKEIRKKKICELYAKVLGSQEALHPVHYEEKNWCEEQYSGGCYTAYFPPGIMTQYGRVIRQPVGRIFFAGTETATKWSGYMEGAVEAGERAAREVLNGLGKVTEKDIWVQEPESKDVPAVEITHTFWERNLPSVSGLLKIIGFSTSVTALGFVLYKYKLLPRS
In words: MAO-A inhibition assay. The class given is biochemical. Particulars: No = no inhibition; for hMAO-A inhibition up to 10 μM: printed in the IC50 hMAO-A column. Here is the method: (§1) MAO-A (Sigma M7316) and MAO-B (Sigma M7441) inhibition assays were conducted in 96-well micro-plates according to the method described by Zhou et al. [Analytical Biochemistry 253, 169-174, 1997]. […] Reactions were initiated by the addition of a pre-mixed solution of tyramine, horseradish peroxidase and Amplex Red, and were allowed to proceed at 37° C. for 30 min. Enzyme activities were determined by measuring absorbance at 570 nm (SpectralMax Plate reader), absorbance of oxidized Amplex Red generated by this horseradish peroxidase-coupled reaction. Nonspecifically formed products were determined in the presence of 2 and 10 µM clorgyline and deprenyl for MAO-A and MAO-B, respectively. IC50 values were determined by fitting concentration-inhibition data to sigmoidal dose-response curves with two-floating parameters: IC50 and Hill coefficient.

Experiment [2] concerns the target T2, hMAO-B (Homo sapiens, UniProt P27338).
T2 construct: purchased Sigma M7441
T2 sequence (P27338 1-520): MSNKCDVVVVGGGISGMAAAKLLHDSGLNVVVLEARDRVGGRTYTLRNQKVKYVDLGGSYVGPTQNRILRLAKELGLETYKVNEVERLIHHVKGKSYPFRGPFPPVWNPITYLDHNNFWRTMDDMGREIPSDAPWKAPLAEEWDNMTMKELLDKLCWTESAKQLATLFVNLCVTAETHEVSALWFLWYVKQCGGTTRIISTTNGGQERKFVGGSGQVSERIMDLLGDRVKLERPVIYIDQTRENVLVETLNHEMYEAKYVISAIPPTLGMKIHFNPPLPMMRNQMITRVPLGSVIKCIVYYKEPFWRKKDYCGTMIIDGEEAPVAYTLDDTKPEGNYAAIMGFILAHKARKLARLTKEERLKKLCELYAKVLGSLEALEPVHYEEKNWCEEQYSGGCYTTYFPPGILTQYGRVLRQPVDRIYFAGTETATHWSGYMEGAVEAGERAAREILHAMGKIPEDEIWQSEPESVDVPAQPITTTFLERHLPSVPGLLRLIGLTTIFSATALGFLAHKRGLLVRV
Kind of experiment: MAO-B inhibition assay. The class given is biochemical. To be noted: No = no inhibition; for hMAO-B inhibition at 10 μM: printed in the IC50 hMAO-B column. The method, then: as §1

As to `O=c1c(-c2ccc(O)cc2)coc2cc(OCc3noc(-c4ccc(F)c(C(F)(F)F)c4)n3)ccc12` [PT-30, 7-({5-[4-fluoro-3-(trifluoromethyl)phenyl](1,2,4-oxadiazol-3-yl)}methoxy)-3-(4-hydroxyphenyl)chromen-4-one], the “hMAO-A inhibition up to 10 μM” value in experiment [1] is “No”. In experiment [2], the “hMAO-B inhibition up to 10 μM” value is listed as “No”. As to `O=c1c(-c2ccc(O)cc2)coc2cc(OCc3nc(-c4cccnc4)no3)ccc12` [PT-114, 3-(4-hydroxyphenyl)-7-[(3-(3-pyridyl)(1,2,4-oxadiazol-5-yl))methoxy]chromen-4-one], the “hMAO-A inhibition up to 10 μM” value in experiment [1] was “No”. The “hMAO-B inhibition at 10 μM” value in experiment [2] is given as “No”. For the compound `O=c1c(-c2ccc(O)cc2)coc2cc(OCc3cncc(C(F)(F)F)c3)ccc12` [PT-94, 3-(4-hydroxyphenyl)-7-{[5-(trifluoromethyl)(3-pyridyl)]methoxy}chromen-4-one], the “hMAO-A inhibition up to 10 μM” value in experiment [1] is listed as “No”. Moreover, the “hMAO-B inhibition at 10 μM” value in experiment [2] is listed as “No”.

For `COc1ccc2c(COc3ccc4c(=O)c(-c5ccc(O)cc5)coc4c3)cc(=O)oc2c1` [PT-119, 4-{[3-(4-hydroxyphenyl)-4-oxochromen-7-yloxy]methyl}-7-methoxychromen-2-one], the “hMAO-A inhibition up to 10 μM” value in experiment [1] is reported as “No”. Moreover, the “hMAO-B inhibition at 10 μM” value in experiment [2] is given as “No”. On to `O=c1c(-c2ccc(O)cc2)coc2cc(OCc3nc(-c4ccc(Cl)cc4)no3)ccc12` [PT-44, 3-(4-hydroxyphenyl)-7-({3-[4-chlorophenyl](1,2,4-oxadiazol-5-yl)}methoxy)chromen-4-one], for which the “hMAO-A inhibition up to 30 μM” value in experiment [1] is “No”. Further, the “hMAO-B inhibition up to 30 μM” value in experiment [2] is listed as “No”. Take `CNC(=O)c1coc(COc2ccc3c(=O)c(-c4ccc(O)cc4)coc3c2)n1` [PT-118, (2-{[3-(4-hydroxyphenyl)-4-oxochromen-7-yloxy]methyl}(1,3-oxazol-4-yl))-N-methylcarboxamide]: the “hMAO-A inhibition up to 10 μM” value in experiment [1] is recorded as “No”. Also, in experiment [2], the “hMAO-B inhibition at 10 μM” value was “No”.

For the compound `COc1ccc(COc2ccc3c(=O)c(-c4ccc(O)cc4)coc3c2)cc1C(F)(F)F` [PT-27, 3-(4-hydroxyphenyl)-7-{[4-methoxy-3-(trifluoromethyl)phenyl]methoxy}chromen-4-one], the “hMAO-A inhibition up to 10 μM” value in experiment [1] is on record as “No”. Further, the “hMAO-B inhibition up to 10 μM” value in experiment [2] was “No”. As for `O=c1c(-c2ccc(O)cc2)coc2cc(OCc3nnc(-c4ccccc4Cl)o3)ccc12` [PT-80, 7-{[5-(2-chlorophenyl)(1,3,4-oxadiazol-2-yl)]methoxy}-3-(4-hydroxyphenyl)chromen-4-one], the “hMAO-A inhibition up to 10 μM” value in experiment [1] is on record as “No”. In experiment [2], the “hMAO-B inhibition at 10 μM” value is “No”. Take `O=C(O)c1cccc(-c2nc(COc3ccc4c(=O)c(-c5ccc(O)cc5)coc4c3)no2)c1` [PT-41, 3-(3-{[3-(4-hydroxyphenyl)-4-oxochromen-7-yloxy]methyl}-1,2,4-oxadiazol-5-yl)benzoic acid]: in experiment [1], the “hMAO-A inhibition up to 10 μM” value is “No”. Moreover, in experiment [2], the “hMAO-B inhibition up to 10 μM” value is “No”. Take `C=CCOC(=O)c1cccc(-c2nc(COc3ccc4c(=O)c(-c5ccc(O)cc5)coc4c3)no2)c1` [PT-32, prop-2-enyl 3-(3-{[3-(4-hydroxyphenyl)-4-oxochromen-7-yloxy]methyl}-1,2,4-oxadiazol-5-yl)benzoate]: the “hMAO-A inhibition up to 10 μM” value in experiment [1] is listed as “No”. Further, the “hMAO-B inhibition up to 10 μM” value in experiment [2] is given as “No”. In the case of `O=c1c(-c2ccc(O)cc2)coc2cc(OCc3noc(-c4ccc(F)cc4)n3)ccc12` [PT-11, 7-{[5-(4-fluorophenyl)(1,2,4-oxadiazol-3-yl)]methoxy}-3-(4-hydroxyphenyl)chromen-4-one], the “hMAO-A inhibition up to 10 μM” value in experiment [1] is recorded as “No”. Also, the “hMAO-B inhibition at 10 μM” value in experiment [2] (listed as PT-104, 10 µM) was “No”. As for `Nc1cccc(-c2nnc(COc3ccc4c(=O)c(-c5ccc(O)cc5)coc4c3)o2)c1` [PT-121, 7-{[5-(3-aminophenyl)(1,3,4-oxadiazol-2-yl)]methoxy}-3-(4-hydroxyphenyl)chromen-4-one], the “hMAO-A inhibition up to 10 μM” value in experiment [1] was “No”. Also, the “hMAO-B inhibition at 10 μM” value in experiment [2] is given as “No”. For the compound `O=C(O)c1ccc(COc2ccc3c(=O)c(-c4ccc(O)cc4)coc3c2)cc1` [PT-36, 4-{[3-(4-hydroxyphenyl)-4-oxochromen-7-yloxy]methyl}benzoic acid], in experiment [1] (up to 40 μM), the “hMAO-A inhibition up to 40 μM” value was “No”. In addition, the “hMAO-B inhibition up to 30 μM” value in experiment [2] is recorded as “No”. Turning to `N#Cc1cccc(COc2ccc3c(=O)c(-c4ccc(O)cc4)coc3c2)c1` [PT-25, 3-{[3-(4-hydroxyphenyl)-4-oxochromen-7-yloxy]methyl}benzenecarbonitrile], in experiment [1], the “hMAO-A inhibition up to 10 μM” value is reported as “No”. Further, the “hMAO-B inhibition up to 10 μM” value in experiment [2] is reported as “No”. For `O=c1c(-c2ccc(O)cc2)coc2cc(OCc3noc(-c4ccc(C(F)(F)F)cc4)n3)ccc12` [PT-38, 3-(4-hydroxyphenyl)-7-({5-[4-(trifluoromethyl)phenyl](1,2,4-oxadiazol-3-yl)}methoxy)chromen-4-one], in experiment [1], the “hMAO-A inhibition up to 30 μM” value is given as “No”. In experiment [2], the “hMAO-B inhibition up to 30 μM” value was “No”.

Regarding `O=c1c(-c2ccc(O)cc2)coc2cc(OCc3nnc(-c4ccc(F)cc4)o3)ccc12` [PT-81, 7-{[5-(4-fluorophenyl)(1,3,4-oxadiazol-2-yl)]methoxy}-3-(4-hydroxyphenyl)chromen-4-one], in experiment [1], the “hMAO-A inhibition up to 10 μM” value is listed as “No”. For the compound `O=c1c(-c2ccc(O)cc2)coc2cc(OC[C@H](O)CNCc3cccc(C(F)(F)F)c3)ccc12` [PT-53, 7-[(2R)-2-hydroxy-3-({[3-(trifluoromethyl)phenyl]methyl}amino)propoxy]-3-(4-hydroxyphenyl)chromen-4-one], the “hMAO-A inhibition up to 10 μM” value in experiment [1] is reported as “No”. `O=c1c(-c2ccc(O)cc2)coc2cc(OC[C@H](O)CNCc3cc(F)cc(F)c3)ccc12` [PT-55, 7-((2R)-3-{[(3,5-difluorophenyl)methyl]amino}-2-hydroxypropoxy)-3-(4-hydroxyphenyl)chromen-4-one]: the “hMAO-A inhibition up to 10 μM” value in experiment [1] is listed as “No”. As for `O=c1c(-c2ccc(O)cc2)coc2cc(OCCc3ccccc3)ccc12` [PT-87, 3-(4-hydroxyphenyl)-7-(2-phenylethoxy)chromen-4-one], the “hMAO-A inhibition up to 10 μM” value in experiment [1] is reported as “No”. `COC(=O)c1coc(COc2ccc3c(=O)c(-c4ccc(O)cc4)coc3c2)n1` [PT-101, methyl 2-{[3-(4-hydroxyphenyl)-4-oxochromen-7-yloxy]methyl}-1,3-oxazole-4-carboxylate]: in experiment [1], the “hMAO-A inhibition up to 10 μM” value is recorded as “No”. Take `C[C@@H](NC(=O)COc1ccc2c(=O)c(-c3ccc(O)cc3)coc2c1)c1ccc(F)cc1` [PT-90, N-[(1R)-1-(4-fluorophenyl)ethyl]-2-[3-(4-hydroxyphenyl)-4-oxochromen-7-yloxy]acetamide]: the “hMAO-A inhibition up to 10 μM” value in experiment [1] was “No”. Regarding `O=c1c(-c2ccc(O)cc2)coc2cc(OCc3nnc(-c4cc(F)cc(C(F)(F)F)c4)o3)ccc12` [PT-74, 7-({5-[3-fluoro-5-(trifluoromethyl)phenyl](1,3,4-oxadiazol-2-yl)}methoxy)-3-(4-hydroxyphenyl)chromen-4-one], the “hMAO-A inhibition up to 10 μM” value in experiment [1] is given as “No”. Consider `O=c1c(-c2ccc(O)cc2)coc2cc(OCc3nnc(-c4cccc(C(F)(F)F)c4)o3)ccc12` [PT-60, 3-(4-hydroxyphenyl)-7-({5-[3-(trifluoromethyl)phenyl](1,3,4-oxadiazol-2-yl)}methoxy)chromen-4-one], for which the “hMAO-A inhibition up to 10 μM” value in experiment [1] was “No”. Take `COc1ccc(-c2coc3cc(OCc4sc(-c5ccc(C(F)(F)F)cc5)nc4C)ccc3c2=O)cn1` [PT-67, 3-(6-methoxy(3-pyridyl))-7-({4-methyl-2-[4-(trifluoromethyl)phenyl](1,3-thiazol-5-yl)}methoxy)chromen-4-one]: the “hMAO-A inhibition up to 10 μM” value in experiment [1] is listed as “No”.

For the origin of these results see patent US8158810B2 (Gilead Sciences, Inc., priority 2006, dated 2012).
